From US20060178398A1, “Therapeutic compounds for treating dyslipidemic conditions” (priority 2004, published 2006)

Tested on: Caco-2 cells
Test: Cholesterol efflux from cultured human cells (Caco-2, 3H-cholesterol, apoA-I)
Type: cell-based
Conditions: 24 h, mean of quadruplicate incubations
Method: To assess the relevant biological activity of the LXR agonists, certain compounds were tested for their ability to increase cholesterol efflux from cultured human cells, as described by Sparrow et al., JBC, 277, 10021-10027, Mar. 22, 2002. Caco-2 cells, which are of human origin, were obtained from ATCC and grown in Opti-MEM (Gibco #51985-034) containing 10% FCS, non-essential amino acids (Gibco #11140-050), and vitamins (Gibco # 11120-052). Caco-2 cells were plated at 100,000 cells/well in 48-well plates. After four days the cells had reached confluence, and were then labeled with ^3H-cholesterol by incubation for 24 hours in fresh growth media containing ^3H-cholesterol (10 μCi/ml). Following labeling with ^3H-cholesterol, cells were washed and incubated an additional 24 hours in serum-free media containing 1 mg/ml BSA, to allow for equilibration of ^3H-cholesterol with intracellular cholesterol. Cholesterol efflux was initiated by adding 10 μg/ml apoA-I, with or without compound, in serum-free medium. Compounds were added to cell culture medium from DMSO solutions, and control cells received an equivalent amount of DMSO, never exceeding 0.1%. After 24 hours, media were harvested and cells dissolved in 0.1 M NaOH. Media were briefly centrifuged to remove non-adherent cells, and then aliquots of both the supernatants and the dissolved cells were subjected to liquid scintillation spectrometry to determine radioactivity. Cholesterol efflux is expressed as a percentage, calculated as (^3H-cholesterol in medium/(^3H-cholesterol in medium +^3H-cholesterol in cells))×100.

SMILES	% cholesterol efflux (compound concentration 10 nM)	% cholesterol efflux (compound concentration 30 nM)	% cholesterol efflux (compound concentration 100 nM)	% cholesterol efflux (compound concentration 300 nM)	% cholesterol efflux (compound concentration 1000 nM)	% cholesterol efflux (compound concentration 3000 nM)
CCCc1c(OCCCN(C)c2cnc(CC(=O)O)cn2)ccc2c(C(F)(F)F)noc12 [Example 25, {5-[methyl(3-{[7-propyl-3-(trifluoromethyl)-1,2-benzisoxazol-6-yl]oxy}propyl)amino]pyrazin-2-yl}acetic acid]	3.4%	4.4%	4.3%	6.6%	7.4%	7.7%
CCCc1c(OCCCn2ccc3cc(CC(=O)O)c(Cl)cc32)ccc2c(C(F)(F)F)noc12 [Example 40, [6-chloro-1-(3-{[7-propyl-3-(trifluoromethyl)-1,2-benzisoxazol-6-yl]oxy}propyl)-1H-indol-5-yl]acetic acid]	4.9%	5.2%	5.9%	6.3%	6.5%	7.7%
